Experimental data taken from ChEMBL document CHEMBL1201862, “PubChem BioAssay data set” (2004).
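In this assay, cells in 96-well plates receive the compound at five concentrations for 48 hours. Endpoints are linearly interpolated between the surrounding concentrations. GI50 = concentration required for 50% inhibition of growth.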 The source made the active and inactive calls. No stated cut-off is given here; in the data, active = GI50 up to about 1.1 µM and inactive = higher.

Legend:
Assay in all cases: NCI-60 cell line screen, 48 h
[1] = tested on: HOP-62
[2] = tested on: OVCAR-5
[3] = tested on: MDA-MB-435
[4] = tested on: DU-145
[5] = tested on: 786-0
[6] = tested on: RPMI-8226
[7] = tested on: A498
[8] = tested on: SF-539
[9] = tested on: HOP-92
[10] = tested on: OVCAR-4
[11] = tested on: NCI/ADR-RES
[12] = tested on: HCT-15
[13] = tested on: SN12C
[14] = tested on: SK-MEL-2
[15] = tested on: SR
[16] = tested on: HCC 2998
[17] = tested on: IGROV-1
[18] = tested on: ACHN
[19] = tested on: BT-549
[20] = tested on: MDA-MB-231
[21] = tested on: SK-MEL-28
[22] = tested on: TK-10
[23] = tested on: LOX IMVI
[24] = tested on: HCT-116
[25] = tested on: KM12
[26] = tested on: U-251
[27] = tested on: Malme-3M
[28] = tested on: SF-268
[29] = tested on: UO-31
[30] = tested on: NCI-H522
[31] = tested on: MDA-N
[32] = tested on: SW-620
[33] = tested on: UACC-62
[34] = tested on: RXF 393
[35] = tested on: NCI-H23
[36] = tested on: COLO 205
[37] = tested on: NCI-H460
[38] = tested on: OVCAR-8
[39] = tested on: PC-3
[40] = tested on: HT-29
[41] = tested on: UACC-257
[42] = tested on: SK-OV-3
[43] = tested on: M14
[44] = tested on: CAKI-1
[45] = tested on: CCRF-CEM
[46] = tested on: SF-295
[47] = tested on: T47D
[48] = tested on: A549
[49] = tested on: OVCAR-3
[50] = tested on: EKVX
[51] = tested on: SNB-19
[52] = tested on: K562
[53] = tested on: MOLT-4
[54] = tested on: MCF7
[55] = tested on: NCI-H226
[56] = tested on: SK-MEL-5
[57] = tested on: HL-60
[58] = tested on: SNB-75
[59] = tested on: Hs-578T

Measured: GI50

CC(=O)c1cc(S(=O)(=O)c2ccc(O)c(C(C)=O)c2)ccc1O
95.9 µM: [12]
inactive: [1] > 100 µM | [2] > 100 µM | [3] 51.3 µM | [4] > 100 µM | [5] 98.2 µM | [6] 44.4 µM | [7] 64.4 µM | [8] 30.2 µM | [9] > 100 µM | [10] > 100 µM | [11] 58.7 µM | [13] > 100 µM | [14] 92 µM | [15] 33.4 µM | [16] 58.2 µM | [17] > 100 µM | [18] 91 µM | [19] 23.5 µM | [20] > 100 µM | [21] 38.7 µM | [22] 52 µM | [23] 70.3 µM | [24] 92 µM | [25] 44.9 µM | [26] 31.6 µM | [27] > 100 µM | [28] 55.6 µM | [29] 28.4 µM | [30] > 100 µM | [31] > 100 µM | [32] > 100 µM | [33] 18.4 µM | [34] 71.4 µM | [35] 58.1 µM | [36] > 100 µM | [37] 84.9 µM | [38] 70 µM | [39] 75.5 µM | [40] > 100 µM | [41] > 100 µM | [42] 66.7 µM | [43] 67.9 µM | [44] > 100 µM | [45] 34.4 µM | [46] 36.5 µM | [47] 51.8 µM | [48] 49.4 µM | [49] > 100 µM | [50] > 100 µM | [51] 68.5 µM | [52] 79.4 µM | [53] 25.4 µM | [54] 67.6 µM | [55] > 100 µM | [56] > 100 µM

Fc1ccc(/C(=N/Cc2ccccc2)N2CCOCC2)cc1
inactive: [1] > 100 µM | [2] > 100 µM | [3] > 100 µM | [4] > 100 µM | [5] > 100 µM | [6] > 100 µM | [7] > 100 µM | [57] > 100 µM | [8] > 100 µM | [11] > 100 µM | [13] > 100 µM | [14] > 100 µM | [15] > 100 µM | [17] > 100 µM | [18] > 100 µM | [19] > 100 µM | [20] > 100 µM | [21] > 100 µM | [22] > 100 µM | [23] > 100 µM | [24] > 100 µM | [25] > 100 µM | [26] > 100 µM | [27] > 100 µM | [28] > 100 µM | [29] 67.5 µM | [58] > 100 µM | [31] > 100 µM | [32] > 100 µM | [33] > 100 µM | [34] > 100 µM | [35] > 100 µM | [36] > 100 µM | [37] > 100 µM | [38] > 100 µM | [39] > 100 µM | [40] > 100 µM | [41] > 100 µM | [42] > 100 µM | [43] > 100 µM | [44] > 100 µM | [59] > 100 µM | [45] > 100 µM | [46] > 100 µM | [49] > 100 µM | [50] > 100 µM | [51] > 100 µM | [52] > 100 µM | [53] > 100 µM | [54] > 100 µM | [55] > 100 µM | [56] > 100 µM
> 100 µM: [12]

O=C(O)CCC(c1ccccc1)(c1ccccc1)c1ccccc1
inactive: [1] 34.8 µM | [2] > 100 µM | [3] 33 µM | [4] 17.2 µM | [5] 62.2 µM | [6] 27 µM | [7] 41.4 µM | [57] 37.2 µM | [8] 33.3 µM | [9] 13.8 µM | [10] 34.5 µM | [11] 36.5 µM | [13] 38.9 µM | [14] 22.9 µM | [15] 31.6 µM | [16] 32.4 µM | [18] 31 µM | [20] 43.6 µM | [21] 50.5 µM | [22] 52.5 µM | [23] 45.1 µM | [25] 51.1 µM | [26] 39 µM | [27] > 100 µM | [28] 24.5 µM | [29] 38.9 µM | [31] 30.3 µM | [32] 39.8 µM | [33] 27.4 µM | [35] 34.4 µM | [36] 24.7 µM | [37] 25.2 µM | [38] 30.3 µM | [39] 33 µM | [40] 36.1 µM | [41] 37 µM | [42] 31.9 µM | [43] 33 µM | [59] 29.9 µM | [45] 64.3 µM | [46] 50.7 µM | [48] 28.9 µM | [49] 14.7 µM | [50] 36 µM | [51] 42.3 µM | [52] 37.7 µM | [53] 33.9 µM | [54] 17.7 µM | [55] 88.5 µM | [56] 32 µM
29.2 µM: [12]
active: [47] 0.647 µM

CCOC(=O)/C(=C\NC(N)=S)C(=O)c1ccccc1
> 100 µM: [12]
inactive: [1] > 100 µM | [2] > 100 µM | [3] > 100 µM | [4] > 100 µM | [5] > 100 µM | [7] > 100 µM | [57] > 100 µM | [8] > 100 µM | [9] > 100 µM | [10] > 100 µM | [11] > 100 µM | [13] > 100 µM | [14] > 100 µM | [16] > 100 µM | [17] > 100 µM | [18] > 100 µM | [19] > 100 µM | [20] > 100 µM | [21] > 100 µM | [22] > 100 µM | [23] > 100 µM | [24] > 100 µM | [25] > 100 µM | [26] > 100 µM | [28] > 100 µM | [29] > 100 µM | [58] > 100 µM | [31] > 100 µM | [32] > 100 µM | [33] > 100 µM | [34] > 100 µM | [35] > 100 µM | [36] > 100 µM | [37] > 100 µM | [38] > 100 µM | [40] > 100 µM | [41] > 100 µM | [42] > 100 µM | [43] > 100 µM | [44] > 100 µM | [46] > 100 µM | [47] > 100 µM | [48] > 100 µM | [49] > 100 µM | [50] > 100 µM | [51] > 100 µM | [53] > 100 µM | [54] > 100 µM | [55] > 100 µM | [56] > 100 µM

Nc1nc(-[n+]2ccc(-c3ccncc3)cc2)nc(Cl)c1Cl
inactive: [1] 43 µM | [2] > 100 µM | [3] > 100 µM | [4] > 100 µM | [5] 13.5 µM | [6] 17.2 µM | [7] > 100 µM | [57] 18.6 µM | [8] 26.8 µM | [9] 23.8 µM | [10] > 100 µM | [11] > 100 µM | [13] 20.3 µM | [14] 57.4 µM | [15] 20 µM | [16] > 100 µM | [17] 17.6 µM | [18] > 100 µM | [19] > 100 µM | [20] 35.4 µM | [21] 47 µM | [22] 26.3 µM | [23] 15 µM | [24] > 100 µM | [25] 43.6 µM | [26] 35.4 µM | [27] 34.9 µM | [28] 18.4 µM | [29] 32.9 µM | [31] > 100 µM | [32] 25.5 µM | [33] > 100 µM | [34] 16.5 µM | [35] 22.5 µM | [36] 36.2 µM | [37] > 100 µM | [39] 54.3 µM | [40] 88.5 µM | [41] 20.4 µM | [42] > 100 µM | [43] > 100 µM | [45] 13.9 µM | [47] 16.5 µM | [48] > 100 µM | [49] 17.3 µM | [50] 26.6 µM | [51] 27 µM | [52] 29.9 µM | [53] 18.9 µM | [54] 4.6 µM | [55] > 100 µM | [56] > 100 µM
49.4 µM: [12]
